One series has as its system leukaemia L1210. The series can be described thus: Antitumour activity against leukaemia L1210 (survival). Type of series: in vivo, BDF₁ mice. Also noted: MST: unit not given here. As to conditions: L1210 s.c., i.p. days 1, 2, 3; for MST: median survival time; for T/C: treated/control. On the procedure:
Antitumour effects. Male Swiss Schneider mice of 27g body weight were used for the sarcoma S180 experiments: female C₅₇Bl mice of 20g body weight were used for the B16 melanoma experiments; […]; and C₅₇Bl mice of 20g body weight were used for the Lewis lung experiments.
L1210. Spleens were removed from animals 7 days after inoculation of L1210 cells and these spleens were finely minced with 1:100 isotonic saline. 0.1 ml of this spleen and leukaemia L1210 cell suspension was then injected subcutaneously into the flank of each BDF₁.

The test system of series [1] is Lewis lung carcinoma (3LL). The series can be described thus: Lewis lung carcinoma (3LL): primary tumour and lung secondaries. In kind it is in vivo, C₅₇Bl mice. Particulars: C57Bl mice, 3LL s.c., 8/group; ADR 3 mg/kg i.p. days 6-10; in combination CRN 200 mg/kg. On the procedure: Antitumour effects. Male Swiss Schneider mice of 27g body weight were used for the sarcoma S180 experiments: female C₅₇Bl mice of 20g body weight were used for the B16 melanoma experiments; male BDF₁ mice of 30g body weight were used for the L1210 leukaemia experiments; and C₅₇Bl mice of 20g body weight were used for the Lewis lung experiments.
Lewis lung (3LL). This tumour was prepared for inoculation in a manner identical to that used for the S180 sarcoma.
This tumour metastasizes to the lungs when implanted into the flanks of mice. […]

For `COc1cccc2c1C(=O)c1c(O)c3c(c(O)c1C2=O)C[C@@](O)(C(=O)CO)C[C@@H]3O[C@H]1C[C@H](N)[C@H](O)[C@H](C)O1` [ADR, adriamycin], the “DEATHS L1210” value was found to be 8 in the series on leukaemia L1210 (Table 11: BDF ♀ 20g, 8/group, ADR 4.0 mg/kg, in combination CRON 200); 8 with leukaemia L1210 (Table 11: BDF ♀ 20g, 8/group, ADR 6.0 mg/kg, in combination CRON 200); 8 in the series with leukaemia L1210 (Table 11: BDF ♀ 20g, 8/group, ADR 8.0 mg/kg, in combination CRON 200); 1 in the series with leukaemia L1210 (Table 12: BDF ♂ 35g (6/12 old), 8/group, ADR 6.0 mg/kg). Also, the “DEATHS TOXICITY” value in the series with leukaemia L1210 (Table 12: BDF ♂ 35g (6/12 old), 8/group, ADR 6.0 mg/kg, in combination CRON 200) is reported as 7; in the series with leukaemia L1210 (Table 12: BDF ♂ 35g (6/12 old), 8/group, ADR 8.0 mg/kg, in combination CRON 200), 8; with leukaemia L1210 (Table 12: BDF ♂ 35g (6/12 old), 8/group, ADR 10.0 mg/kg, in combination CRON (dose not given)), 8; in the series with leukaemia L1210 (Table 13: BDF ♀ 25g (2-3/12 old), 7/group, ADR 10.0 mg/kg, in combination CRON 200), 7; with leukaemia L1210 (Table 13: BDF ♀ 25g (2-3/12 old), 7/group, ADR 12.5 mg/kg, in combination CRON 200), 7; in the series with leukaemia L1210 (Table 13: BDF ♀ 25g (2-3/12 old), 7/group, ADR 15.0 mg/kg, in combination CRON (dose not given)), 7. In addition, the COMMENTS entry in the series with leukaemia L1210 (Table 12: BDF ♂ 35g (6/12 old), ADR 8.0 mg/kg) is reported as “Toxic”; in the series on leukaemia L1210 (Table 12: BDF ♂ 35g (6/12 old), ADR 10.0 mg/kg, bracket spans ADR and ADR/CRON lines) it was “) Toxic”; with leukaemia L1210 (Table 13: BDF ♀ 25g (2-3/12 old), ADR 12.5 mg/kg, bracket spans ADR and ADR/CRON lines) it was “} Toxic”; in the series with leukaemia L1210 (Table 13: BDF ♀ 25g (2-3/12 old), ADR 15.0 mg/kg, bracket spans ADR and ADR/CRON lines), “} Toxic”. Further, the MST with leukaemia L1210 (Table 11: BDF ♀ 20g, ADR 4.0 mg/kg, in combination CRON 200, control 6.8) is recorded as 10.8; with leukaemia L1210 (Table 11: BDF ♀ 20g, ADR 6.0 mg/kg, in combination CRON 200, control 6.8) it was 9.7; in the series with leukaemia L1210 (Table 11: BDF ♀ 20g, ADR 8.0 mg/kg, in combination CRON 200, control 6.8), 11.8; with leukaemia L1210 (Table 12: BDF ♂ 35g (6/12 old), ADR 6.0 mg/kg, in combination CRON 200, control 7.0) it was 9.38; in the series with leukaemia L1210 (Table 12: BDF ♂ 35g (6/12 old), ADR 8.0 mg/kg, in combination CRON 200, control 7.0), 5.8; in the series with leukaemia L1210 (Table 12: BDF ♂ 35g (6/12 old), ADR 10.0 mg/kg, in combination CRON (dose not given), control 7.0), 5.5. Further, the MST was determined as 10.3 in the series with leukaemia L1210 (Table 13: BDF ♀ 25g (2-3/12 old), ADR 10.0 mg/kg, in combination CRON 200, control 10.6); 5.4 with leukaemia L1210 (Table 13: BDF ♀ 25g (2-3/12 old), ADR 12.5 mg/kg, in combination CRON 200, control 10.6); 5.1 with leukaemia L1210 (Table 13: BDF ♀ 25g (2-3/12 old), ADR 15.0 mg/kg, in combination CRON (dose not given), control 10.6). The T/C in the series on leukaemia L1210 (Table 11: BDF ♀ 20g, ADR 4.0 mg/kg, in combination CRON 200) is on record as 159; with leukaemia L1210 (Table 11: BDF ♀ 20g, ADR 6.0 mg/kg, in combination CRON 200), 135; with leukaemia L1210 (Table 11: BDF ♀ 20g, ADR 8.0 mg/kg, in combination CRON 200), 174; with leukaemia L1210 (Table 12: BDF ♂ 35g (6/12 old), ADR 6.0 mg/kg, in combination CRON 200), 134; in the series on leukaemia L1210 (Table 12: BDF ♂ 35g (6/12 old), ADR 8.0 mg/kg, in combination CRON 200), 83; with leukaemia L1210 (Table 12: BDF ♂ 35g (6/12 old), ADR 10.0 mg/kg, in combination CRON (dose not given)), 79. The T/C with leukaemia L1210 (Table 13: BDF ♀ 25g (2-3/12 old), ADR 10.0 mg/kg, in combination CRON 200) was 97; with leukaemia L1210 (Table 13: BDF ♀ 25g (2-3/12 old), ADR 12.5 mg/kg, in combination CRON 200), 51; in the series on leukaemia L1210 (Table 13: BDF ♀ 25g (2-3/12 old), ADR 15.0 mg/kg, in combination CRON (dose not given)) it was 48. In series [1], the “COMMENTS (survival)” value was “All ADR alone animals dead by d17”.

Regarding `CO[C@@]12[C@H](COC(N)=O)C3=C(C(=O)C(C)=C(N)C3=O)N1C[C@@H]1N[C@@H]12` [MMC, Mitomycin C], the “SURVIVORS 14d” value in the series with leukaemia L1210 (Table 15: BDF mice, 8/group, MMC 5 mg/kg, in combination CRN 200 mg/kg) is 1. Besides, the MST in the series on leukaemia L1210 (Table 15: BDF mice, MMC 5 mg/kg, in combination CRN 200 mg/kg, control 7.1) is listed as 7.0.

(Values after patent EP0345251B1 (priority 1986, dated 1988).)
